The values that follow come from patent US20220081435A1, “ANDROGEN RECEPTOR PROTEIN DEGRADERS” (THE REGENTS OF THE UNIVERSITY OF MICHIGAN, priority 2019, published 2022).

The test system of assay [1] is AR-amplified prostate cancer cells. The conditions noted are these: cited from earlier work.
A further assay concerns the target T1, AR protein (Homo sapiens, UniProt P10275, T878A).
T1 construct: The percent AR protein degradation induced by these compounds at various concentrations in LNCaP cells; host or cells: LNCaP
T1 sequence (P10275 1-920 T878A): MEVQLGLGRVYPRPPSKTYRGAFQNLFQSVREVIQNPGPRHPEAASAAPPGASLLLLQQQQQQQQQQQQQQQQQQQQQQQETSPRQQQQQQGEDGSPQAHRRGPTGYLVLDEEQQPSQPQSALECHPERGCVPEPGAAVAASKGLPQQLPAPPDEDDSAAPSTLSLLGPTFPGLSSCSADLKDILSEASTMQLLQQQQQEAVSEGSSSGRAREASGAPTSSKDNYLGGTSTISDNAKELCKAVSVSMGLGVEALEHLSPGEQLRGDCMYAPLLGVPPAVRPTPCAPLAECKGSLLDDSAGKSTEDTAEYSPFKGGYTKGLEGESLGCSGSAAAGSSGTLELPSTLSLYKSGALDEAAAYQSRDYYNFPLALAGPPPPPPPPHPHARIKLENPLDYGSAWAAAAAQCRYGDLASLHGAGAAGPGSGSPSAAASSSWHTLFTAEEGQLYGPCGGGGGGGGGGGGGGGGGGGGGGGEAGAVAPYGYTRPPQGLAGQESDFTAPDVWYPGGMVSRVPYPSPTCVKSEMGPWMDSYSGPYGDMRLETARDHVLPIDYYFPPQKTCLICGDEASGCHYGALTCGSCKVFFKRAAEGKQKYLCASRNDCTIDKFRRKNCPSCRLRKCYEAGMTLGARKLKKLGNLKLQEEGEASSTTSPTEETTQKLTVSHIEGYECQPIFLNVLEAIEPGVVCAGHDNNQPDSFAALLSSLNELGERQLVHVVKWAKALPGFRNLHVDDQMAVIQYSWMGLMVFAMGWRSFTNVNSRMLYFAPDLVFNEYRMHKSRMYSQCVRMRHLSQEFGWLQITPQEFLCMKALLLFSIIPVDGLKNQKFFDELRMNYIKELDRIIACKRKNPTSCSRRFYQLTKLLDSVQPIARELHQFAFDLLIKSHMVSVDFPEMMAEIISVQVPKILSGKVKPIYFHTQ
Put plainly: AR protein degradation in LNCaP cells (Western blotting). Type of assay: cell-based. The conditions noted are these: treatment time 6 h, average of three independent experiments. The procedure, abridged:
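LNCaP cells were cultured with 10% FBS at 37° C and lysed in RIPA buffer after treatment. AR levels were measured by Western blot. Degradation percentage was quantified by densitometry as the background-corrected AR band relative to the loading control.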
In general terms: Immunoblotting shows a protein as a band on a membrane.

For the next assay, the target named is T2, VHL-ElonginBC complex (Homo sapiens, UniProt P40337).
T2 construct: His-TEV (cleaved yes); made in house; host or cells: E. coli BL21(DE3)
Put plainly: Fluorescence-polarization competitive binding assay for VHL protein. As for the experimental part:
Cloning and Purification of VHL-ElonginBC complex. […] The cells were induced overnight with 0.4 mM IPTG at 24° C. […] The cell suspension was lysed by sonication and debris removed via centrifugation. […] The protein complex was eluted in 20 mM Tris-HCl pH 7.0, 200 mM NaCl and 300 mM Imidazole, dialyzed into 20 mM Tris-HCl pH 7.0, 150 mM NaCl, and 0.01% bME and incubated with TEV protease overnight at 4° C. […] The flow through containing the VHL complex was diluted to 75 mM NaCl and applied to a HiTrap Q column (GE Healthcare). The sample was eluted with a salt gradient (0.075-1 M NaCl), concentrated and further purified on a Superdex S75 column (GE Healthcare) pre-equilibrated with 20 mM Bis-Tris 7.0, 150 mM NaCl and 1 mM DTT. Samples were aliquoted and stored at −80° C.
The IC50 and Ki values of compounds were determined in competitive binding experiments. […] IC50 values were determined by nonlinear regression fitting of the competition curves. Ki values of competitive inhibitors were obtained directly by nonlinear regression fitting, based upon the KD values of the probe and concentrations of the protein and probe in the competitive assays. All the FP competitive experiments were performed in duplicate in three independent experiments.

Molecules are shown by their SMILES.

Regarding `Cc1ncsc1-c1ccc(CNC(=O)[C@@H]2C[C@@H](O)CN2C(=O)[C@@H](NC(=O)COCCCCOc2ccc(-c3ccc(N4C(=S)N(c5ccc(C#N)c(C(F)(F)F)c5)C(=O)C4(C)C)cc3)cc2)C(C)(C)C)cc1` [ARCC-4, (4R)-1-((S)-2-(2-(4-((4′-(3-(4-cyano-3-(trifluoromethyl)phenyl)-5,5-dimethyl-4-oxo-2-thioxoimidazolidin-1-yl)-[1,1′-biphenyl]-4-yl)oxy)butoxy)acetamido)-3,3-dimethylbutanoyl)-4-hydroxy-N-(4-(4-methylthiazol-5-yl)benzyl)pyrrolidine-2-carboxamide], the “Inducing apoptosis and inhibiting proliferation, compared with enzalutamide” value in assay [1] is “more potent and effective than enzalutamide”.
Consider `Cc1ncsc1-c1ccc([C@H](CC(=O)N2CCC(N3CCC(C#Cc4ccc(C(=O)N[C@H]5C(C)(C)[C@H](Oc6ccc(C#N)c(Cl)c6)C5(C)C)cc4)CC3)CC2)NC(=O)[C@@H]2C[C@@H](O)CN2C(=O)[C@H](NC(=O)C2(F)CC2)C(C)(C)C)cc1` [Compound 38, (2S,4R)—N—((S)-3-(4-((4-(((1r,3r)-3-(3-Chloro-4-cyanophenoxy)-2,2,4,4-tetramethyl-cyclobutyl)carbamoyl)phenyl)ethynyl)-[1,4′-bipiperidin]-1′-yl)-1-(4-(4-methylthiazol-5-yl)phenyl)-3-oxopropyl)-1-((R)-2-(1-fluorocyclopropane-1-carboxamido)-3,3-dimethyl-butanoyl)-4-hydroxypyrrolidine-2-carboxamide], for which the “% AR protein degradation in LNCaP Cells” value at AR protein (0.1 μM), on AR protein (1 μM) and on AR protein (10 μM) was below 5% throughout.
Turning to `Cc1cc([C@H](C(=O)N2C[C@H](O)C[C@H]2C(=O)N[C@@H](CC(=O)NCCCCCCCCCNC(=O)c2ccc(C(=O)N[C@H]3C(C)(C)[C@H](Oc4ccc(C#N)c(Cl)c4)C3(C)C)cc2)c2ccc(-c3scnc3C)cc2)C(C)C)on1` [Compound 39, N1-((1r,3r)-3-(3-Chloro-4-cyanophenoxy)-2,2,4,4-tetramethylcyclobutyl)-N4-(9-((S)-3-((2S,4R)-4-hydroxy-1-((R)-3-methyl-2-(3-methylisoxazol-5-yl)butanoyl)pyrrolidine-2-carboxamido)-3-(4-(4-methylthiazol-5-yl)phenyl)propanamido)nonyl)terephthalamide], at AR protein (LNCaP, 0.01 μM), the Dmax at 0.01 µM came to 43%. Moreover, on AR protein (LNCaP, 0.1 μM, read-out: % AR protein degradation in LNCaP Cells), the Dmax at 0.1 µM is 91%. Also, the Dmax at 1 µM at AR protein (LNCaP, 1 μM, read-out: % AR protein degradation in LNCaP Cells) came to 96%.
The compound `Cc1cc([C@H](C(=O)N2C[C@H](O)C[C@H]2C(=O)N[C@@H](CC(=O)NCCOCCOCCOCCNC(=O)c2ccc3c(c2)C(=O)OC32c3ccc(O)cc3Oc3cc(O)ccc32)c2ccc(-c3scnc3C)cc2)C(C)C)on1` [HXC78, (2S,4R)—N—((S)-1-(3′,6′-dihydroxy-3-oxo-3H-spiro[isobenzofuran-1,9′-xanthen]-5-yl)-17-(4-(4-methylthiazol-5-yl)phenyl)-1,15-dioxo-5,8,11-trioxa-2,14-diazaheptadecan-17-yl)-4-hydroxy-1-((R)-3-methyl-2-(3-methylisoxazol-5-yl)butanoyl)pyrrolidine-2-carboxamide, reference compound] showed a Kd at VHL-ElonginBC complex (tracer binding to VHL complex (VHL, Elongin B, Elongin C)) of 2.4 nM.
For `CC(=O)N[C@H](C(=O)N1C[C@H](O)C[C@H]1C(=O)N[C@@H](C)c1ccc(-c2scnc2C)cc1)C(C)(C)C` [VHL-b, (2S,4R)-1-((S)-2-acetamido-3,3-dimethylbutanoyl)-4-hydroxy-N—((S)-1-(4-(4-methylthiazol-5-yl)phenyl)ethyl)pyrrolidine-2-carboxamide], the IC50 at VHL-ElonginBC complex (FP competition, VHL protein and fluorescent probe both 5 nM) is 164 ± 13 nM.

The term Kd denotes the concentration at which binding is half-saturated. A high value points to a looser complex. Broadly, the IC50 is the concentration that gives 50% inhibition. Lower therefore signals greater potency in that assay.
